Test results reported in article PMC3128679 (Bioorganic & medicinal chemistry letters, 2011).
One block for each compound: values may come before it.

Columns and labels:
Format in all cases: biochemical
SHP2 [1] = target: T1, SHP2 (Homo sapiens, UniProt Q06124); assay: in vitro SHP2 inhibition assay; settings: for SHP2 inhibition at 1 mM: 1 mM compound concentration
T1 sequence (Q06124 1-593): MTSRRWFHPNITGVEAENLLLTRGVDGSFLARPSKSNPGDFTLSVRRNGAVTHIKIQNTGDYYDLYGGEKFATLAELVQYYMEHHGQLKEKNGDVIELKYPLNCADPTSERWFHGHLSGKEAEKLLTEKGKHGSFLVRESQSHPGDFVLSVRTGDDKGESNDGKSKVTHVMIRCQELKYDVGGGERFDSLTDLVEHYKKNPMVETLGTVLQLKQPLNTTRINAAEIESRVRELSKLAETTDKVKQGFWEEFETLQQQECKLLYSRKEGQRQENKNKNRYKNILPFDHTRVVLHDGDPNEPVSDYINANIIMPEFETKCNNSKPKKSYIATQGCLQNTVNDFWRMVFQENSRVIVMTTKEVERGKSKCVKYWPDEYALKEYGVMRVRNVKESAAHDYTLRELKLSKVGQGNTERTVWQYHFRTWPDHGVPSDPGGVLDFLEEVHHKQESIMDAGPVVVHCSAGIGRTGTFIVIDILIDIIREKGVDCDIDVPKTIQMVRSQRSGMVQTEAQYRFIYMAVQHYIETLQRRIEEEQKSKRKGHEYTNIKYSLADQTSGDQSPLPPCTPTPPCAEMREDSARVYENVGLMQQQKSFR

Cdc14 = assay: PTP panel inhibition assay, Cdc14; settings: at 100 µM
PTPα = PTPα (Homo sapiens, UniProt P18433); assay: PTP panel inhibition assay, PTPα; settings: at 100 µM
Chain of PTPα (P18433 20-802): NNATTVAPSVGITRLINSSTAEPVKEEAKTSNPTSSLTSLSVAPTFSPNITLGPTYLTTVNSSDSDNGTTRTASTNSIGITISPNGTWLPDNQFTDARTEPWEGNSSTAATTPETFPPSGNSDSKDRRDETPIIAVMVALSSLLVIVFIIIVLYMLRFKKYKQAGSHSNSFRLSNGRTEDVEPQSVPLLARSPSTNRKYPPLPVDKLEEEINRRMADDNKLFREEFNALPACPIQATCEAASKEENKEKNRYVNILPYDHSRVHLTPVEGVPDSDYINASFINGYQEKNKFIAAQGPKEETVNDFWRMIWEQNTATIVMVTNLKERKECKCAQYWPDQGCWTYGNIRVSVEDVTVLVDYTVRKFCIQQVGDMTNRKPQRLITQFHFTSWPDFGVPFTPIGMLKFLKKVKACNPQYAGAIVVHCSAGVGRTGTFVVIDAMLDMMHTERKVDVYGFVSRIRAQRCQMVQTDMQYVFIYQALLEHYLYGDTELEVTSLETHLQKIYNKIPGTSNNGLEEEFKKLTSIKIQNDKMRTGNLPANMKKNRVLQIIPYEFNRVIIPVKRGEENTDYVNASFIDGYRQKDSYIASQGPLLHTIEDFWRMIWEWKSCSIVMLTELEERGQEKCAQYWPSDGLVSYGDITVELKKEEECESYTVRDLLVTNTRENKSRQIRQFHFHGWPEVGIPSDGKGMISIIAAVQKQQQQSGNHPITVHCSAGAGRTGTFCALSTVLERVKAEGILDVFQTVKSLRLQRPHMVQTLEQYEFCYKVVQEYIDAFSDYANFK

SHP2 [2] = target: T1, SHP2; assay: steady-state enzyme kinetic analysis of SHP2 inhibition; settings: C21 at 0, 4, 8 and 12 µM
VHR = VHR (Homo sapiens, UniProt P51452); assay: PTP panel inhibition assay, VHR; settings: at 100 µM
Chain of VHR (P51452 whole entry, species assumed): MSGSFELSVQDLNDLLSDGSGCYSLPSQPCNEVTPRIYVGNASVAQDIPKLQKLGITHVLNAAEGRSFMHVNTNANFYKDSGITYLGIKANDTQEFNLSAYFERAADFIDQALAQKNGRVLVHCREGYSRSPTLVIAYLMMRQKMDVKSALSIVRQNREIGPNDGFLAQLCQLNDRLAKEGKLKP

LYP = target: T2, LYP (Homo sapiens, UniProt Q9Y2R2); assay: PTP panel inhibition assay, LYP; settings: at 100 µM
T2 sequence (Q9Y2R2 1-807): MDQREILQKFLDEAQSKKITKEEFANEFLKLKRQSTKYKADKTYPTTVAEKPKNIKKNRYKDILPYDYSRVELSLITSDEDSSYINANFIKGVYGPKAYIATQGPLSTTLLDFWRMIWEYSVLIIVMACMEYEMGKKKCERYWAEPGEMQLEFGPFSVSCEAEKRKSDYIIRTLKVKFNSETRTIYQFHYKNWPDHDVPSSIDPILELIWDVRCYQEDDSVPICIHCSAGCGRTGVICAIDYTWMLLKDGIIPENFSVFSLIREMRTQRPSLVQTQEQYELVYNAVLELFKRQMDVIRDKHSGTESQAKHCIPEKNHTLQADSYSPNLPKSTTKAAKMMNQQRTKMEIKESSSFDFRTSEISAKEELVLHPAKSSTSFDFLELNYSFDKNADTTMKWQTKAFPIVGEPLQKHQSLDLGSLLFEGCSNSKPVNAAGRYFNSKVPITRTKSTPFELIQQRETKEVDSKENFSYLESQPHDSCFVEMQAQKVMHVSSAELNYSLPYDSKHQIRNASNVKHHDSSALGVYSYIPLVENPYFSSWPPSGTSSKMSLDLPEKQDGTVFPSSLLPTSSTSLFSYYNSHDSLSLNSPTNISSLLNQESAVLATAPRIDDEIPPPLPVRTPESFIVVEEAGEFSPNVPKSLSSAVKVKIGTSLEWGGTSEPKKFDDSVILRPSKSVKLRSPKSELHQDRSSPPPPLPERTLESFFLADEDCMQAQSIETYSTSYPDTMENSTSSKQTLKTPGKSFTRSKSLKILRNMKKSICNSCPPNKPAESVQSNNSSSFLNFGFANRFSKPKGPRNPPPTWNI

SHP1 = SHP1 (Homo sapiens, UniProt P29350); assay: SHP1 inhibition assay
Chain of SHP1 (P29350 whole entry): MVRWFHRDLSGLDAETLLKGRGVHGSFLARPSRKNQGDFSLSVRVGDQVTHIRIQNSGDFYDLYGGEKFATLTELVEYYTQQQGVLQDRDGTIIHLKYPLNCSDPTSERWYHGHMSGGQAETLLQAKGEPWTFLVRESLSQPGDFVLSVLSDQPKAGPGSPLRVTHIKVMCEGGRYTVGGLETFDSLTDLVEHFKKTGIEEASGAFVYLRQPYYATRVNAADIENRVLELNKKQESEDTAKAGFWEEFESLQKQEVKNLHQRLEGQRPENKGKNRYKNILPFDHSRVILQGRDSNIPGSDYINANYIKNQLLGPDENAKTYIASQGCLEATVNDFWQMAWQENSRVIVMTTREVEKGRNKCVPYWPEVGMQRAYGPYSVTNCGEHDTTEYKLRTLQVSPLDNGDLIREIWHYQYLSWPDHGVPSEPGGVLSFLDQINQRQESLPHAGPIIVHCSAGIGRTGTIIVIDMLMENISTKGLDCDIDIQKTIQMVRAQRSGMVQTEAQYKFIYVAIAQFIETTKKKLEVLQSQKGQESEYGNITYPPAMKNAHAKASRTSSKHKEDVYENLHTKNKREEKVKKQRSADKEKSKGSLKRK

PTP1B = target: T3, PTP1B (Homo sapiens, UniProt P18031); assay: PTP1B inhibition assay
T3 sequence (P18031 1-435): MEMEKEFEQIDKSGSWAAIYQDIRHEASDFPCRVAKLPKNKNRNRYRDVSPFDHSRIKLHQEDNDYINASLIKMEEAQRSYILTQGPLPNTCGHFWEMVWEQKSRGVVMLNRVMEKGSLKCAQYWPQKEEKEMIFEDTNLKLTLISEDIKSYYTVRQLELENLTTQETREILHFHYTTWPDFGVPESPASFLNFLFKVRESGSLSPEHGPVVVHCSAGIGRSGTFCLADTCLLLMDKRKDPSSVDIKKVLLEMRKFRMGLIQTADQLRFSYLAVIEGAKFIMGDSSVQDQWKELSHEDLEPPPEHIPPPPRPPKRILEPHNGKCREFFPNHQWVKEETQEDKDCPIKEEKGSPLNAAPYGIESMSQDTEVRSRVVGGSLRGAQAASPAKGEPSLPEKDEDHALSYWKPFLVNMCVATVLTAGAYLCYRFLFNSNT

Structure (SMILES): O=C(O)C1=NN(c2ccccc2)C(=O)C1 [Compound C21-A3]
IC50 (SHP2 [1]): > 1000 µM
SHP2 inhibition at 1 mM (SHP2 [1]): failed to inhibit SHP2

Structure (SMILES): O=C(O)C1=NN(c2ccc(S(=O)(=O)O)cc2)C(=O)C1 [Compound C21-A2]
fold decreased affinity for SHP2 (SHP2 [1]; relative to C21-A1): ~ 4 fold

Structure (SMILES): Cc1cc(S(=O)(=O)O)ccc1N1N=C(C(=O)O)CC1=O [Compound C21-A1]
fold decreased SHP2 inhibition (SHP2 [1]; relative to C21): ~ 5 fold

Structure (SMILES): CC1=NN(c2ccc(S(=O)(=O)O)cc2C)C(=O)C1 [Compound C21-A4]
IC50 (SHP2 [1]): > 1000 µM
SHP2 inhibition at 1 mM (SHP2 [1]): failed to inhibit SHP2

Continued, in another order:

inhibition of PTPα (PTPα): almost no inhibition
mode of inhibition against SHP2 (SHP2 [2]): reversible and competitive
inhibition of VHR (VHR): almost no inhibition
inhibition of LYP (LYP): almost no inhibition
concentration dependence of SHP2 inhibition (SHP2 [1]): concentration-dependent inhibition
Structure (SMILES): Cc1cc(S(=O)(=O)O)c(S(=O)(=O)O)cc1N1N=C(C(=O)O)CC1=O [Compound C21]
inhibition of Cdc14 (Cdc14): almost no inhibition

inhibition against SHP1 compared with SHP2 (in words) (SHP1): better inhibition
concentration dependence of SHP2 inhibition (SHP2 [1]): concentration-dependent inhibition
inhibitory activity against SHP2 (in words) (SHP2 [1]): only moderate inhibitory activity
inhibition against PTP1B compared with SHP2 (in words) (PTP1B): better inhibition
Structure (SMILES): CC(=O)N(c1ccc2oc3c(c2c1)CCCC3)S(=O)(=O)c1ccc(C(=O)O)cc1 [Compound C18]

inhibition against SHP1 compared with SHP2 (in words) (SHP1): better inhibition
concentration dependence of SHP2 inhibition (SHP2 [1]): concentration-dependent inhibition
inhibitory activity against SHP2 (in words) (SHP2 [1]): only moderate inhibitory activity
inhibition against PTP1B compared with SHP2 (in words) (PTP1B): better inhibition
Structure (SMILES): CC(=O)c1c(C)oc2ccc(NS(=O)(=O)c3cccc(C(=O)O)c3)cc12 [Compound C30]
